Assay results taken from patent US20030017186A1, “Carboxylic acid fluorides as pesticides” (priority 1999, published 2003).

Columns and labels:
[1] = system: wood pests (house longhorn beetle, common furniture beetle); assay: Fumigation test, wood pests; format: in vivo, Hylotrupes bajulus, Anobium punctatum
Source text: (§1) The test organisms, separated by species, were placed into a glass vessel measuring 30 cm×30 cm×60 cm, which was sealed with a glass lid so as to be airtight. The adults and the larvae of the mealworm beetle (Tenebrio molitor) and the broad-horned flour beetle (Gnathocerus cornutus) were placed into small glass vessels approximately 5 cm in diameter, which were closed with a gauze lid and in which they could freely move about. The larvae of the rice weevil had burrowed into seeds of grain. The wood pest larvae were inserted into small blocks of wood measuring 5 cm×2.5 cm×2 cm. The openings were sealed with wads of cotton wool. Only one each of the larvae of the house longhorn beetle (Hylotrupes bajulus) was inserted into a piece of wood, while 6-8 larvae of the common furniture beetle (Anobium punctatum) were inserted into each piece of wood.
(§2) The respective gas was then introduced into the fumigation vessel through a gas line from a gas tank that contained the specified amount of gas. After a defined time period, the fumigation vessel was purged with compressed air. The discharged gas was purified by an attached gas scrubber.
(§3) The beetles were observed until they died. This point was recorded for each species. The larvae of the wood pests as well as the larvae of the rice weevil (Sitophilus oryzae) had to be picked out of the wood or the grain to check their condition. If any of the animals were still alive, the wooden test blocks remaining in the vessel were fumigated again and were reexamined after the corresponding time span had elapsed. The same number of animals in the untreated control was also checked at each point.
(§4) The vitality of the animals was checked at certain time intervals. The beetles could be observed through the fumigation vessel. This was also true for the larvae of the mealworm beetle and the broad-horned flour beetle. The wooden test blocks of the wood pest larvae were opened with hammer and chisel. Tweezers were used to pull the rice weevil larvae out of the grain seeds. The exact time intervals and the number of the evaluated pests were documented in the test results.

[2] = system: Mealworm beetle (Tenebrio molitor); assay: Fumigation test in glass vessel, mealworm beetles; format: in vivo; details: TENEMO beetles
[3] = system: Rice weevil (Sitophilus oryzae); assay: Fumigation test in glass vessel, rice weevils; format: in vivo; details: SITTOR beetles
[4] = system: termites; assay: Termite control fumigation test (overall statements); format: in vivo, Cryptotermes brevis, Incisitermes tabogae; details: Example 6
Source text: (§5) c) American drywood termites (Cryptotermes brevis)=CRYPBR, and Incisitermes tabogae=INCITA
as §1, §2, §3
as §4, with “The wooden test blocks of the wood pest larvae were opened with hammer and chisel. Tweezers were used to pull the rice weevil larvae out of the grain seeds.” left out

[5] = system: Incisitermes tabogae; assay: Termite control fumigation test, Incisitermes tabogae; format: in vivo; details: Example 6
Source text: as §5, §1, §2, §3, §4

[6] = system: Broad-horned flour beetle (Gnathocerus cornutus); assay: Fumigation test in glass vessel, broad-horned flour beetles; format: in vivo; details: GNATCO beetles
[7] = system: Common furniture beetle (Anobium punctatum) larvae; assay: Fumigation test in glass vessel, common furniture beetle larvae in wood blocks; format: in vivo; details: ANOBPU larvae in wood blocks
[8] = system: Rice weevil (Sitophilus oryzae) larvae; assay: Fumigation test in glass vessel, rice weevil larvae in grain seeds; format: in vivo; details: SITTOR larvae in grain seeds
Source text: a2) Rice weevil (Sitophilus oryzae)=SITTOR
as §1, §2, §3, §4

[9] = system: House longhorn beetle (Hylotrupes bajulus); assay: Fumigation test in glass vessel, house longhorn beetles; format: in vivo
[10] = system: Broad-horned flour beetle (Gnathocerus cornutus) larvae; assay: Fumigation test in glass vessel, broad-horned flour beetle larvae; format: in vivo; details: GNATCO larvae
[11] = system: wood and storage pests; assay: Fumigation test, wood and storage pests (overall statements); format: in vivo
Source text: as §1, §2, §3, §4

[12] = system: Common furniture beetle (Anobium punctatum); assay: Fumigation test in glass vessel, common furniture beetles; format: in vivo; details: ANOBPU beetles; Example 5; ACF 50.6/48.2/51.4 g/m^3, SF 47.4/44.6/41 g/m^3 (1st/2nd/3rd fumigation); 23/23/22° C.
Source text: b2) Common furniture beetle (Anobium punctatum)=[…]
as §1, §2, §3, §4

[13] = Example 4, gas 36.5 g/m^3, 19.3° C., 54% rel. air humidity
[14] = Example 5, ACF 50.6/48.2/51.4 g/m^3, SF 47.4/44.6/41 g/m^3 (1st/2nd/3rd fumigation), 23/23/22° C.
[15] = Example 7, ACF 53.0/54.6/0 g/m^3, second gas (SF) 43.6/41.4/39.8 g/m^3 (1st/2nd/3rd fumigation), 20.0/20.2/19.8 C.
[16] = INCITA termites, ACF 50.0/53.8 g/m^3, SF 47.8/44.8 g/m^3 (1st/2nd fumigation), 23.7/24° C.
[17] = HYLOBA beetles, Example 5, ACF 50.6/48.2/51.4 g/m^3, SF 47.4/44.6/41 g/m^3 (1st/2nd/3rd fumigation), 23/23/22° C.
[18] = HYLOBA beetles, Example 7, ACF 53.0/54.6/0 g/m^3, second gas (SF) 43.6/41.4/39.8 g/m^3 (1st/2nd/3rd fumigation), 20.0/20.2/19.8 C.

CC(=O)F [ACF, acetyl fluoride]
Effectiveness against wood pests ([1]; Conclusion, especially at temperatures in excess of 20° C.): very effective | Condition of the larvae of the wood pests after 24 hours ([1]; Example 4, house longhorn beetle larvae and 2 common furniture beetle larvae, gas 36.5 g/m^3, 19.3° C., evaluated only after 24 hours): dead | Number alive, 1 hr. after Start of Fumigation [2, 13]: 0 | Number dead, 1 hr. after Start of Fumigation [2, 13]: 10 | Number alive, 30 min. after Start of Fumigation [2, 14]: 0 | Number dead, 30 min. after Start of Fumigation [2, 14]: 10 | Number alive, 30 min. after 1st Fumigation [2, 15]: 0 | Number dead, 30 min. after 1st Fumigation [2, 15]: 10 | Number alive, 1 hr. after Start of Fumigation [3, 13]: 0 | Number dead, 1 hr. after Start of Fumigation [3, 13]: 25 | Number alive, 30 min. after Start of Fumigation [3, 14]: 0 | Number dead, 30 min. after Start of Fumigation [3, 14]: 15 | Number alive, 30 min. after 1st Fumigation [3, 15]: 0 | Number dead, 30 min. after 1st Fumigation [3, 15]: 15 | Effectiveness against termites in comparison test ([4]; compared with SO2F2): as effective as SO2F2 | Speed of effect on termites in wood ([4]; compared with sulfuryl fluoride, penetrates wood more quickly): slightly faster effect | Number of Incisitermes still alive on reexamination after 24-hour observation period ([5]; out of 30 animals fumigated 1 hour, then 24-hour observation): 3 | Number alive, 30 min. after 1st Fumigation [5, 16]: 90 | Number alive, 1 hr. after 1st Fumigation [5, 16]: 30 | Number alive, 3 hrs. after 1st Fumigation [5, 16]: 0 | Number dead, 30 min. after 1st Fumigation [5, 16]: 0 | Number dead, 1 hr. after 1st Fumigation [5, 16]: 0 | Number dead, 3 hrs. after 1st Fumigation [5, 16]: 60 | Number alive, 1 hr. after Start of Fumigation [6, 13]: 13 | Number alive, 2 hrs. after Start of Fumigation [6, 13]: 3 | Number alive, 12 hrs. after Start of Fumigation [6, 13]: 0 | Number dead, 1 hr. after Start of Fumigation [6, 13]: 12 | Number dead, 2 hrs. after Start of Fumigation [6, 13]: 22 | Number dead, 12 hrs. after Start of Fumigation [6, 13]: 25 | Number alive, 30 min. after Start of Fumigation [6, 14]: 0 | Number dead, 30 min. after Start of Fumigation [6, 14]: 15 | Number alive, 30 min. after 1st Fumigation [6, 15]: 0 | Number dead, 30 min. after 1st Fumigation [6, 15]: 15 | Number alive, 1 hr. after Start of Fumigation [7, 14]: 1 | Number alive, 3 hrs. after Start of Fumigation [7, 14]: 2 | Number alive, 6 hrs after Start of Fumigation [7, 14]: 0 | Number dead, 1 hr. after Start of Fumigation [7, 14]: 3 | Number dead, 3 hrs. after Start of Fumigation [7, 14]: 2 | Number dead, 6 hrs after Start of Fumigation [7, 14]: 8 | Number alive, 1 hr. after 1st Fumigation [7, 15]: 5 | Number alive, 3 hrs. after 1st Fumigation [7, 15]: 2 | Number alive, 6 hrs after 1st Fumigation [7, 15]: 4 | Number dead, 1 hr. after 1st Fumigation [7, 15]: 1 | Number dead, 3 hrs. after 1st Fumigation [7, 15]: 4 | Number dead, 6 hrs after 1st Fumigation [7, 15]: 2 | Number alive, 24 hrs. after Start of Fumigation [8, 13]: 0 | Number dead, 24 hrs. after Start of Fumigation [8, 13]: 25 | Number alive, 1 hr. after Start of Fumigation [8, 14]: 0 | Number dead, 1 hr. after Start of Fumigation [8, 14]: 15 | Time after which the house longhorn beetles were dead ([9]; Example 4, 3 house longhorn beetles, gas 36.5 g/m^3, 19.3° C.): 15 min | Number alive, 30 min. after Start of Fumigation [9, 17]: 0 | Number dead, 30 min. after Start of Fumigation [9, 17]: 4 | Number alive, 30 min. after 1st Fumigation [9, 18]: 3 | Number alive, 1 hr. after 1st Fumigation [9, 18]: 0 | Number dead, 30 min. after 1st Fumigation [9, 18]: 3 | Number dead, 1 hr. after 1st Fumigation [9, 18]: 6 | Number alive, 1 hr. after Start of Fumigation [10, 13]: 0 | Number dead, 1 hr. after Start of Fumigation [10, 13]: 25 | Number alive, 30 min. after Start of Fumigation [10, 14]: 0 | Number dead, 30 min. after Start of Fumigation [10, 14]: 15 | Number alive, 30 min. after 1st Fumigation [10, 15]: 0 | Number dead, 30 min. after 1st Fumigation [10, 15]: 15 | Effectiveness against exposed beetles and larvae ([11]; Conclusion of Examples 1-5): very effective | Comparison of action on wood and storage pests ([11]; Example 7, against several of the pest species tested): superior to chlorodifluoroacetyl fluoride | Number alive, 30 min. after Start of Fumigation [12]: 0 | Number dead, 30 min. after Start of Fumigation [12]: 6
